Values of other authors, collected in patent US5484785A, “Salts of a quinolone-carboxylic acid” (Cheil Foods & Chemicals, Inc., priority 1992, dated 1996).

## O=C(O)c1cn(C2CC2)c2cc(N3CCNCC3)c(F)cc2c1=O [Ciprofloxacin lactate]
lactate: contained in the injection in an excessive amount
  Precipitation in injection/solution (in words): tends to occur precipitation in an injection

## methanesulfonate
solution
  pH of known Ciprofloxacin salts (in words): very low value of pH

## O=C(O)c1cn(C2CC2)c2cc(N3CCNCC3)c(F)cc2c1=O [Ciprofloxacin, 1-cyclopropyl-6-fluoro-1,4-dihydro-4-oxo-7-(1-piperazinyl)-quinoline-3-carboxylic acid]
bacteria
  Antibacterial activities (in words): potent antibacterial activities
